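Interpolation was linear, between the two tested concentrations surrounding the appropriate level; five concentrations were tested over 48 hours in 96-well plates. Here, GI50 denotes the concentration required for 50% inhibition of growth. Definition used: TGI = concentration required for complete inhibition of growth.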
Key:
Test in all cases: NCI anticancer screen, dose series, 48 h
ACHN renal = test system: ACHN renal
CAKI-1 renal = test system: CAKI-1 renal
CCRF-CEM leukemia = test system: CCRF-CEM leukemia
HOP-92 NSCLC = test system: HOP-92 NSCLC
NCI-H23 lung = test system: NCI-H23 lung
OVCAR-5 ovarian = test system: OVCAR-5 ovarian
SF-295 CNS = test system: SF-295 CNS
SK-MEL-5 melanoma = test system: SK-MEL-5 melanoma
SK-OV-3 ovarian = test system: SK-OV-3 ovarian
UACC-62 melanoma = test system: UACC-62 melanoma

SMILES	GI50 (ACHN renal) [µM]	TGI (ACHN renal) [µM]	GI50 (CAKI-1 renal) [µM]	TGI (CAKI-1 renal) [µM]	GI50 (CCRF-CEM leukemia) [µM]	TGI (CCRF-CEM leukemia) [µM]	GI50 (HOP-92 NSCLC) [µM]	TGI (HOP-92 NSCLC) [µM]	GI50 (NCI-H23 lung) [µM]	TGI (NCI-H23 lung) [µM]	GI50 (OVCAR-5 ovarian) [µM]	TGI (OVCAR-5 ovarian) [µM]	GI50 (SF-295 CNS) [µM]	TGI (SF-295 CNS) [µM]	GI50 (SK-MEL-5 melanoma) [µM]	TGI (SK-MEL-5 melanoma) [µM]	GI50 (SK-OV-3 ovarian) [µM]	TGI (SK-OV-3 ovarian) [µM]	GI50 (UACC-62 melanoma) [µM]	TGI (UACC-62 melanoma) [µM]
O=c1oc2ccc(F)cc2c(=O)n1-c1ccc(F)cc1F	2.71	8.63	1.98	6.4	3.95	67.4	1.6	4.68	2.96	19.7	3.46	> 100	2.33	5.58	1.76	3.69	1.72	4.6	2.02	7.52
COC(=O)C(=O)C(C(=O)C=C(C)C)C(=O)C(=O)Nc1cc(C(F)(F)F)ccc1Cl (stereo not given)		> 100		> 100		71.2		> 100		> 100		> 100		> 100		> 100		> 100		> 100
N#Cc1ccc(C#Cc2ccccc2C#CCCCCO)cc1	19.1	33.2	21	39.8	14.8	29.1	17.7	34.6	17.2	33.8	15.1	28.4	21.3	41	17.5	31.9	18.2	33.5	15	28.4
O=C(O)CCCCC(CCSCc1ccccc1)SCc1ccccc1 (stereo not given)	51.1	> 100	> 77.5	> 100	37	> 100	29.3	> 81.6	33.5	> 100	> 100	> 100	25.8	> 74.5	53.5	> 100	> 88.7	> 100	21.5	60.9
Cc1ccc(S(=O)(=O)N(CCOc2ccc(/C(N)=N/Cl)cc2)CCOc2ccc(/C(N)=N\Cl)cc2)cc1	> 100	> 100	76.6	> 100	11.6	> 100	17.2	89.3	12	40.1	> 100	> 100	7.71	42.9	10.3	26.8	83.3	> 100	19	64.5
COc1ccc(CNc2cc(OC)c(OC)c(OC)c2)cc1		> 100		> 100		> 100		> 100		> 55.9		> 83.7		> 55.1		14.6		> 90.5		> 100
COc1cccc(/C=N/NC(=O)c2ccccc2Nc2ccnc(C(F)(F)F)c2)c1O	0.279	> 100	0.257	9.72	0.115	2.02	0.342	21.5	0.904	46.9	0.701	98.3	0.522	29.1	0.418	5.65	0.583	31	0.378	10.6
CN(C)CCC(=O)N1C/C(=C/c2ccccc2)C(=O)/C(=C\c2ccccc2)C1		5.5		7.02		0.874		16.6		6.76		6.66		8.55		3.9		15.2		3.77
COC(=O)C[C@H]1CCC2(OCCO2)[C@]1(C)C(=O)OC		> 100		> 100		> 100		> 100		> 100		> 100		> 100		> 100		> 100		> 100
Cc1cc(N(CCOS(C)(=O)=O)CCOS(C)(=O)=O)ccc1C=Nc1ccc(-c2nc(Cc3ccccc3)sc2C)cc1		3.51		9.2		24.3		25.4		17.8		37.8		32.4		26.7		4.56		16.7
O=C(Nc1ccc(N2CCNCC2)cc1)c1[nH]ncc1Nc1cc(Oc2ccccc2)ncn1	0.213	0.479	1.21	3.39	1.83	4.73	2.35	5.32	2.12	7.85	1.78	4.24	1.7	3.27	1.43	3	1.99	4.84	2.15	4.96
O=C(CN1CCOCC1)Nc1ccc(Cn2nnc3c2C(=O)c2nnn(Cc4ccc(NC(=O)CN5CCOCC5)cc4)c2C3=O)cc1	4.01	20.2	> 45	> 100	0.233	1.6	0.822	2.34	0.802	3.61	1.94	4.29	1.65	3.68	0.249	0.877	2.68	8.28	0.463	1.83
O=NN(Cc1ccc(Cl)cc1)C(C(=O)O)c1ccccc1 (stereo not given)		> 100		> 100		> 100		> 100		> 100		> 100		> 100		> 100		> 100		> 100
CCNCCNc1cc(-c2ccc(C(=O)OC)cc2)c(C#N)c2nc3ccccc3n12	1.66	3.3	2.92	> 100	0.505	3.55	2.23	4.36	3.82	> 100	3.08	> 100	1.57	3.12	1.7	3.11	2	4.8	2.26	4.74
CCOc1cccc(/C=N/NC(=O)c2ccccc2Nc2ccnc(C(F)(F)F)c2)c1O	0.271	> 67.8	0.222	10.5	0.136	> 31.4	0.246	19.7	1.08	> 64.5	5.39	> 100	0.516	30.6	0.5	4.91	0.676	40.5	0.407	14.7
CSc1ccc(C2=NN(C(C)=O)C(c3cc(C)cs3)C2)cc1 (stereo not given)	30.1	> 100	28.4	> 100	26.7	> 100	21.6	90.1	29.9	> 100	44.4	> 100	22.4	> 100	15.1	29.5	38.2	> 100	11.2	98.4
Cc1c(C(=O)N/N=C/c2ccc(Cl)cc2)nnn1-c1ccnc2c(C(F)(F)F)cccc12	2.02	3.95	17.6	45.1	14.8	> 100	3.62	16.2	13.5	35.9	15.6	36.9	1.82	4.01	28.4	> 100	11.6	25.2	10.6	28.4
